# Source: article PMC11648915, “Identification and development of TRPM4 antagonists to counteract neuronal excitotoxicity” (iScience, 2024)
# Tested on: not listed separately
# Assay: Hepatocyte clearance
# Type: in vitro ADME
# Details: cryopreserved hepatocytes, 120 min, read-out: Hep. clearance (converted)
# Procedure: Cryopreserved hepatocytes were exposed to test Compounds at a concentration of 1 μM for 120 minutes. Samples were collected at various time points, and percent remaining of test compound was determined using mass spectrometry (LC-MS/MS) to calculate hepatic clearance rate (L/h/kg).
row,SMILES,CLint scaled at 1 μM [mL/min/kg]
1,Fc1cccc(-c2ccccc2NCc2nc3ccccc3o2)c1 [CMP343],322
2,Fc1ccccc1-c1ccccc1NCc1nc2ccccc2o1 [CMP353],562
3,c1csc(-c2ccccc2NCc2nc3ccccc3o2)c1 [CMP355],293
4,Cc1ccsc1-c1ccccc1NCc1nc2ccccc2o1 [CMP369],347

# Tested on: not listed separately
# Assay: Microsome clearance (mouse)
# Type: in vitro ADME
# Details: mouse liver microsomes, 45 min, NADPH
# Procedure: (§1) Human or mouse liver microsomes were incubated with the test compound at a concentration of 1 μM for 45 min in the presence of cofactor (NADPH in excess). Samples were collected at various time points, and % remaining of test compound was determined using mass spectrometry (LC-MS/MS) to calculate hepatic clearance rate (L/h/kg).
row,SMILES,CLint scaled at 1 μM [mL/min/kg]
1,Fc1cccc(-c2ccccc2NCc2nc3ccccc3o2)c1 [CMP343],> 900
2,Fc1ccccc1-c1ccccc1NCc1nc2ccccc2o1 [CMP353],> 900
3,c1csc(-c2ccccc2NCc2nc3ccccc3o2)c1 [CMP355],> 900
4,Cc1ccsc1-c1ccccc1NCc1nc2ccccc2o1 [CMP369],> 900
5,Nc1ccccc1-c1ccccc1NCc1nc2ccccc2o1 [CMP457],900

# Biological target: potassium channel human Ether-a-go-go Related Gene (hERG) (Homo sapiens, UniProt Q12809)
# Assay: hERG channel inhibition
# Type: cell-based
# Details: not given
# Excerpt: We next used in vitro assays to test absorption, distribution, metabolism, excretion and toxicity (ADMET) parameters for selected compounds. We assessed compound absorption using parallel artificial membrane permeability (PAMPA) and Caco-2 cell permeability assays (cut-off criterion >2 × 10^−6 cm s^−1). […] To assess potential off-target activity of our compounds that could be relevant for safety in humans, we conducted comprehensive in vitro pharmacology using the commercially available and widely used SafetyScreen44 interaction panel[60] covering eight protein families.
# Sequence of potassium channel human Ether-a-go-go Related Gene (hERG) (Q12809 whole entry): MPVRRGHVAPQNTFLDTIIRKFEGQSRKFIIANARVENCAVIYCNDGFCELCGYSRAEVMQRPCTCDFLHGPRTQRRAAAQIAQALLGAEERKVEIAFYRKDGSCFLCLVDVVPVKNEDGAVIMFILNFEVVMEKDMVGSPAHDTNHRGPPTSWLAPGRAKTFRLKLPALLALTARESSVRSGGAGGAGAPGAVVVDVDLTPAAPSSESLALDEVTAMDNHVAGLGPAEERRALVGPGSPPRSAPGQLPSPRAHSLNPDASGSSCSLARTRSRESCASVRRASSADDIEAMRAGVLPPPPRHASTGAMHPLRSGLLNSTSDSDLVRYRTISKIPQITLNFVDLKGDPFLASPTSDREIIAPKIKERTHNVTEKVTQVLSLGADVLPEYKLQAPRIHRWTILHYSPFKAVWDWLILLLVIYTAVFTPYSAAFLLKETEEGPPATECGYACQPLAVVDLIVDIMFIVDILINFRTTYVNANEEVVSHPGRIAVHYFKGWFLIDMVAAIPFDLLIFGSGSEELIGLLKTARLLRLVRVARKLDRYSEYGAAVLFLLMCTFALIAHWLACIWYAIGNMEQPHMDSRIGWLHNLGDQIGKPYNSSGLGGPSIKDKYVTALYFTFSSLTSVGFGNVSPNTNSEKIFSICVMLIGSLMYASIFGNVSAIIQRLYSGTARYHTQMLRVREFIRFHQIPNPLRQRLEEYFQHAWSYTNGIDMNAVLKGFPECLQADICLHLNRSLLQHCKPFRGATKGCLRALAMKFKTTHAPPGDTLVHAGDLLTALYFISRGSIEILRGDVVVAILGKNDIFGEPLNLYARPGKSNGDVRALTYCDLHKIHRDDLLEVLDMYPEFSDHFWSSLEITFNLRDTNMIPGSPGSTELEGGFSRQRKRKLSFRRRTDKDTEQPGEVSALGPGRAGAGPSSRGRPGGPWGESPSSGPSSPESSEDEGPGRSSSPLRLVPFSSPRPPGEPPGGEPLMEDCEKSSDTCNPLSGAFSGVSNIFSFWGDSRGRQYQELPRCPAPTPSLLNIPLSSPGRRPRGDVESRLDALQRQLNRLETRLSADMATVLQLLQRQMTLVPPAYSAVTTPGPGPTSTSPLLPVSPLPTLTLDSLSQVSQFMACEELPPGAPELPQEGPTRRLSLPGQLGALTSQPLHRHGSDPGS
row,SMILES,IC50 [nM]
1,Fc1cccc(-c2ccccc2NCc2nc3ccccc3o2)c1 [CMP343],> 30000
2,Fc1ccccc1-c1ccccc1NCc1nc2ccccc2o1 [CMP353],> 10000
3,c1csc(-c2ccccc2NCc2nc3ccccc3o2)c1 [CMP355],> 10000
4,Cc1ccsc1-c1ccccc1NCc1nc2ccccc2o1 [CMP369],> 10000

# Tested on: primary mouse neuronal cultures
# Assay: Glutamate-induced excitotoxicity assay (RealTime-Glo viability)
# Type: cell-based
# Details: 5 μM, primary mouse neuronal cultures
# Procedure: To evaluate the in vitro efficacy of our developed compounds, we employed primary mouse neuronal cultures (PNCs) and conducted glutamate-induced excitotoxicity assays. Cultures were pre-treated with respective Series 1 and Series 3 compounds before glutamate exposure, and neuronal viability was assessed 15 h post-stimulation with glutamate.
# Figure 3 Neuroprotective in vitro evaluation and in vivo pharmacokinetics (A) In vitro evaluation of compound activity on glutamate-induced excitotoxicity in mature primary neuronal cultures. Neuronal cultures were treated with 5 μM of the specified compound or vehicle control 5 h prior to glutamate stimulation, assessing compound rescue activity and toxicity relative to minimal (Vehicle +0 μM Glu) and maximal (Vehicle +50 μM Glu) excitotoxicity. Time course of a representative compound with virtual endpoint at 15 h post stimulation and assay window definition (left). Toxicity of compound treated cultures with and without glutamate stimulation (right). Data are represented as mean and 95% confidence interval; n ≥ 4; ∗p < 0.05, ∗∗p < 0.01, ∗∗∗p < 0.001; One-sample Wilcoxon signed-rank test. […] Mitochondrial membrane potential was measured by the mean fluorescence intensity of TMRE normalized to MitoTracker. Data are represented as mean ± SEM; n = 5; paired t-test. (C) In vivo pharmacokinetics of four selected compounds. Time course of compound concentration in the brain, heart, and plasma after a single dose via intraperitoneal (i.p.) or intravenous (i.v.) application. Data are represented as mean ± SEM. Half-life estimates by non-compartmental analysis are shown as vertical line and IC50 value as dashed horizontal line. (D) Compound concentration in the brain relative to respective IC50 concentrations after a single dose via intra-peritoneal or intra-venous routes. Also see Figure S6.
# Excitotoxicity assays were performed using primary mouse neuronal cultures between 14 and 17 days in vitro (DIV). Cell viability was measured using RealTime-Glo MT Cell Viability Assay (Promega, catalog no. G9711) according to the manufacture protocol. Compounds were co-administered with RealTime-Glo reagents, and luciferase measurements were conducted using the Tecan-Spark M10 microplate reader with environmental control set to 37°C and 5% CO2. Neuronal cultures were stimulated with either glutamate or vehicle five hours after compound application and monitored for an additional 20 hours. To adjust for inter-well variability, arbitrary light units were normalized to a steady signal prior to glutamate addition for each well. Toxicity was calculated relative to the minimal cell viability at 15 hours post glutamate stimulation and cell viability of the PBS vehicle control.
row,SMILES,Compound toxicity in neuronal cultures
1,Fc1ccccc1-c1ccccc1NCc1nc2ccccc2o1 [CMP353],observed toxicity
2,c1csc(-c2ccccc2NCc2nc3ccccc3o2)c1 [CMP355],observed toxicity
3,Cc1ccsc1-c1ccccc1NCc1nc2ccccc2o1 [CMP369],observed toxicity
4,Nc1ccccc1-c1ccccc1NCc1nc2ccccc2o1 [CMP457],observed toxicity

# Tested on: not listed separately
# Assay: Microsome clearance (human)
# Type: in vitro ADME
# Details: human liver microsomes, 45 min, NADPH, read-out: Microsomes (h) clearance (converted)
# Procedure: as §1
row,SMILES,CLint scaled at 1 μM [mL/min/kg]
1,Fc1cccc(-c2ccccc2NCc2nc3ccccc3o2)c1 [CMP343],570
2,Fc1ccccc1-c1ccccc1NCc1nc2ccccc2o1 [CMP353],605
3,c1csc(-c2ccccc2NCc2nc3ccccc3o2)c1 [CMP355],558
4,Cc1ccsc1-c1ccccc1NCc1nc2ccccc2o1 [CMP369],600
5,Nc1ccccc1-c1ccccc1NCc1nc2ccccc2o1 [CMP457],243

# Biological target: human TRPM4 (Homo sapiens, UniProt Q8TD43)
# Assay: QPatch automated patch clamp on TRPM4-expressing HEK293 cells
# Type: cell-based
# Details: hsTRPM4-expressing HEK293 cells
# Procedure: QPatchHTX, an automated electrophysiology platform, was used in single hole mode. One day before use human TRPM4- or TRPM5-expressing HEK293 cells were seeded in a T75 flask at a density of 53k cells per cm^2 and at passages < 23. […] The extracellular solution was (in mM): CaCl2 (7), MgCl2 (2), KCl (5), HEPES (10), NaCl (70), NMDG (70); pH 7.4 with NaOH. The intracellular solution was (in mM): HEPES (10), NMDG (100), NaCl (50), EGTA (20), MgCl2 (1), CaCl2 (21); pH 7.2 with HCl. […] This protocol was repeated every 7 seconds. […] FFA was used as reference compound and applied cumulatively with each concentration incubating at a minimum of 20 voltage protocol runs (140 seconds) with the current after addition of FFA being calculated as full block. […] Each compound was measured at least 3 time independently.
# Sequence of human TRPM4 (Q8TD43 whole entry): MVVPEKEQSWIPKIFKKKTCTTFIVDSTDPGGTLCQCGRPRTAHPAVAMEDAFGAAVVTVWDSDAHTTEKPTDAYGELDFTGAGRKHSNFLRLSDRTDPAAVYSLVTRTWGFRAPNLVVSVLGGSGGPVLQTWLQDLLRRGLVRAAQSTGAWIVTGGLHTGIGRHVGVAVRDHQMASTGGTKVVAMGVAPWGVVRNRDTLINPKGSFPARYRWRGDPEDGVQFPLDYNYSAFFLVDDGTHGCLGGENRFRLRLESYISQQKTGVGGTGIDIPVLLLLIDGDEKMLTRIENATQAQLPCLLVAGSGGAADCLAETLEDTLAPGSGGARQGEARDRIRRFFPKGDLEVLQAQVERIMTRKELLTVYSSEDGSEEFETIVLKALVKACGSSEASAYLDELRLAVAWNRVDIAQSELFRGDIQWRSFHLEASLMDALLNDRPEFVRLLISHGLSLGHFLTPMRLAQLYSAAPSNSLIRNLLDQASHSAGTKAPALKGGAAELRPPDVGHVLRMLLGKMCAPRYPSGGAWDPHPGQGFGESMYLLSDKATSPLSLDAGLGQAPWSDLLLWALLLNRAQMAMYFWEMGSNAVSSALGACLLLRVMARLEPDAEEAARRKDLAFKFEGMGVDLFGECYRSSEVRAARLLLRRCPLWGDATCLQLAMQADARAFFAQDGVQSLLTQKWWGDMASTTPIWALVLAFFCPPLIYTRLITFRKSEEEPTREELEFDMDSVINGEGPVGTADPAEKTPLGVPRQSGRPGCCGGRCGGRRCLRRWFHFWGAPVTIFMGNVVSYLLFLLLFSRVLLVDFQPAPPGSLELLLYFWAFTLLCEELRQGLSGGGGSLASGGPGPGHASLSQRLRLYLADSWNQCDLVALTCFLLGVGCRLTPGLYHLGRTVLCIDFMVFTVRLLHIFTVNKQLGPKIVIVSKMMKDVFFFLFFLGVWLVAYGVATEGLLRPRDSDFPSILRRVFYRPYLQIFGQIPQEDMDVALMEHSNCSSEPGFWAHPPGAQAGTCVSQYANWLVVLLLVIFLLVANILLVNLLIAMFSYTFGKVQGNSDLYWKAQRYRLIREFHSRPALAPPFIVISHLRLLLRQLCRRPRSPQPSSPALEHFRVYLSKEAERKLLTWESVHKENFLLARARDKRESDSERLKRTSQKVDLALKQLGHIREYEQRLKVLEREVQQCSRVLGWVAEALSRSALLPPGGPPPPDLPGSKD
row,SMILES,IC50 [nM]
1,Fc1cccc(-c2ccccc2NCc2nc3ccccc3o2)c1 [CMP343],90
2,Fc1ccccc1-c1ccccc1NCc1nc2ccccc2o1 [CMP353],80
3,c1csc(-c2ccccc2NCc2nc3ccccc3o2)c1 [CMP355],590

# Tested on: not listed separately
# Assay: Parallel Artificial Membrane Permeability Assay (PAMPA)
# Type: in vitro ADME
# Details: PAMPA; pH not given; read-out: PAMPA perm.
# Procedure: Parallel Artificial Membrane Permeability Assay (PAMPA) was performed using artificial lipid membrane layers to assess passive permeability of the test compound. Test compounds were diluted to 200 μM in system buffer at pH 5.0, 6.2 and 7.4. The solutions were filtered and 150 μL transferred to a High Sensitivity 96 well UV plate. This was analysed by UV as the reference plate. A 200 μL sample of the 200 μM solution was transferred to the ‘donor’ plate of the PAMPA pIon sandwich plate system. 200 μL of acceptor sink buffer was transferred to the ‘acceptor’ plate which had been previously treated with GIT-O lipid solution across the well filter. Donor and acceptor plates were sandwiched and kept in a humid environment at room temperature for 16 hours. On completion of the incubation the donor and acceptor plates were separated. 150 μL of solution was transferred from each of the donor and acceptor PAMPA sandwich plates into High Sensitivity 96 well UV plates for analysis by UV. at different time points. The concentration of the compound in the acceptor compartment was determined using mass spectrometry. The permeability coefficient (Papp) was calculated based on the rate of appearance of the compound in the acceptor compartment (nm/s).
row,SMILES,"Papp at 16 h, 200 μM [×10⁻⁶ cm/s]"
1,Nc1ccccc1-c1ccccc1NCc1nc2ccccc2o1 [CMP457],37.4

# Same assay, conditions: pH not given
row,SMILES,PAMPA perm.
1,Fc1ccccc1-c1ccccc1NCc1nc2ccccc2o1 [CMP353],low sensitivity
